Data reported in PMC4266648, “Metabolism of Skin-Absorbed Resveratrol into Its Glucuronized Form in Mouse Skin” (PLoS ONE, 2014).
“Also recorded” adds a separate entry of the source.

Key:
[1] = Distribution of RESV metabolites in mouse tissues after oral and dermal administration (LC-MS); assay type: in vivo, mouse; conditions: for Tissue distribution of metabolite: hairless mice, 4 h after 1 mg RESV, both oral and skin administration
Description: Mice were separated from each other and could not lick RESV from their dorsal skin.
Mice were anesthetized with pentobarbital and blood was collected from the right ventricle. For metabolite extraction 0.2 mL of blood were mixed with 1.8 mL 55% methanol, pre-chilled to −40°C and kept until further processing as described in the metabolome sample preparation section. In addition to blood, metabolome samples were prepared from liver, dorsal skin, leg skin, and hind limb muscle.
Around 100 mg of each mouse tissue was dissected and weighed. Tissues were minced and homogenized for 3 min in 500 µL 50% methanol on ice using a BioMasher II (Nippi, Tokyo, Japan). Next, 1 mL 50% methanol and internal standards (10 nmol 4-(2-hydroxyethyl)-1-piperazineethanesulfonic acid (HEPES) and piperazine-N,N’-bis(2-ethanesulfonic acid) (PIPES)) were added to the samples. HEPES and PIPES were used as internal standards to correct for the variation of sample preparation and different detection efficiency. After brief vortexing, samples were centrifuged at 500 g for 10 min at 4°C. Supernatant was recovered for further processing as described in the metabolome sample preparation section (without the repeated addition of internal standards and vortexing).
Metabolome sample preparation was previously described.
Peaks were assigned to metabolites based upon their retention times and m/z values. Compounds were confirmed with standards (STD) or with analysis of MS/MS spectra (MS/MS), if no standard was available. In cases where no standard compound or MS/MS spectrum was available, compounds were identified by generating chemical formulae using m/z values in MZmine 2.10 module and given MS status. Data were analyzed using the scatter plot function built into MZmine 2.10 software, as well as by exporting the data to a spreadsheet.

[2] = test system: HaCaT (human keratinocytes); assay: RESV metabolism in cell culture (LC-MS), HaCaT; conditions: 20 or 200 µM RESV, 4 h
Description: (§1) Cells were maintained in Dulbecco’s Modified Eagle Medium (DMEM) with 1% penicillin/streptomycin and 2 mM L-glutamine with some modifications as follows; DMEM (1.0 g/L glucose) with 10% fetal calf serum (FCS) for HepG2; DMEM (4.5 g/L glucose) with 10% FCS for HaCaT; DMEM (4.5 g/L glucose) with 20% FCS for C2C12. C2C12 cells were differentiated into myotubes by switching medium into DMEM containing 2% horse serum. Cells were plated on a 10 cm dish and allowed to adhere for 18 h. […] After 4 h incubation, cells were washed with PBS twice, followed by addition of 2 mL 50% ice-cold methanol. Collected cells were transferred into tubes on ice and further processed as described in metabolome sample preparation section.
(§2) After addition of internal standards (10 nmol HEPES and PIPES) to metabolome samples and brief vortexing, samples were transferred to Amicon Ultra 10 kDa cut-off filters (Millipore, Billerica, MA, USA) to remove proteins. […]
(§3) LC-MS data were obtained using a Paradigm MS4 HPLC system (Michrom Bioresources, Auburn, CA, USA) coupled to an LTQ Orbitrap mass spectrometer (Thermo Fisher Scientific, Waltham, MA, USA), as described previously [38]. […] Peak areas of metabolites of interest were measured using the MZmine 2.10 software [39] and normalized using the peak areas of HEPES and PIPES, as described in S2 Table.

[3] = test system: HepG2 (human hepatoblastoma cells); assay: RESV metabolism in cell culture (LC-MS), HepG2; conditions: HepG2, 20 or 200 µM RESV, 4 h
Description: as §1, §2, §3

C2C12 (mouse myoblasts) = assay: RESV metabolism in cell culture (LC-MS), C2C12; conditions: C2C12, 20 or 200 µM RESV, 4 h
Description: as §1, §2, §3

TPA-induced ear edema = assay: TPA-induced ear edema; assay type: in vivo, mouse; conditions: for Ear thickness: 24 h after 1 µg TPA, before TPA 0.22 mm, TPA control 0.30 mm, female C57BL/6 mice
Description: The ear edema model was employed as previously described. Briefly, 1 µg 12-O-Tetradecanoylphorbol-13-acetate (TPA) was applied to the right ear of female C57BL/6 mice. Edema was evaluated by measuring ear thickness and ear weight. […] Ear thickness was measured with a micrometer before and 24 h after TPA treatment. After sacrificing mice with CO2, ear punch biopsies (6 mm diameter) were weighed.

[4] = RESV-treated mouse samples, LC-MS negative ionization mode

Dihydroresveratrol-sulfate [DH-RESV-SULF]
Tissue distribution of metabolite [1]: detected mainly in liver and blood; also recorded: barely detectable in dorsal and leg skin, and muscle

O=C(O)[C@H]1O[C@@H](Oc2cc(O)cc(/C=C\c3ccc(O)cc3)c2)[C@H](O)[C@@H](O)[C@@H]1O (relative stereo) [cis-RESV-3-O-GLUC, cis-Resveratrol-3-O-glucuronide]
Detection of metabolite (normalized peak area) in cells treated with RESV [2]: detected | Detection of metabolite (normalized peak area) in cells treated with RESV [3]: detected | Detection of metabolite (normalized peak area) in cells treated with RESV (C2C12 (mouse myoblasts)): detected

Dihydroresveratrol- glucuronide [DH-RESV-GLUC]
Tissue distribution of metabolite [1]: detected in blood and liver as well as at lower levels in skin and muscle

Resveratrol-sulfoglucuronide [RESV-SULF-GLUC]
Reports and comments: samples in which the metabolite was detected ([1]; mouse, in vivo): Azorin-Ortuno et al 2011 [4] (MS/MS data) Detected in blood mouse blood samples

Oc1ccc(/C=C/c2cc(O)cc(O)c2)cc1 [RESV, trans-resveratrol]
Ear weight (TPA-induced ear edema; 6 mm ear punch 24 h after TPA, 1 mg RESV oral, TPA-treated mice 9.4 mg): 8.1 mg | Ear thickness (TPA-induced ear edema; 1 mg RESV applied topically to ear 30 min after TPA): 0.21 mm | Ear thickness (TPA-induced ear edema; 1 mg RESV orally 30 min after TPA): 0.26 mm

O=C(O)[C@H]1O[C@@H](Oc2ccc(/C=C/c3cc(O)cc(O)c3)cc2)[C@H](O)[C@@H](O)[C@@H]1O (relative stereo) [trans-RESV-4-O-glucuronide, trans-resveratrol-4-O-glucuronide]
Detection of metabolite in mouse and cell culture samples ([1]; mouse, in vivo): barely detected

Dihydroresveratrol- sulfoglucuronide [DH-RESV-SULF-GLUC]
Reports and comments: samples in which the metabolite was detected [1, 4]: Detected in mouse liver samples

Resveratrol-diglucuronide [RESV-DIGLUC]
Reports and comments: samples in which the metabolite was detected ([1]; mouse, in vivo): Detected in mouse skin samples

O=C(O)[C@H]1O[C@@H](Oc2cc(O)cc(/C=C/c3ccc(O)cc3)c2)[C@H](O)[C@@H](O)[C@@H]1O (relative stereo) [trans-RESV-3-O-GLUC, trans-resveratrol-3-O-glucuronide]
Detection of metabolite (normalized peak area) in cells treated with RESV [2]: detected | Detection of metabolite (normalized peak area) in cells treated with RESV [3]: detected | Detection of metabolite (normalized peak area) in cells treated with RESV (C2C12 (mouse myoblasts)): detected

O=C(O)[C@H]1O[C@@H](Oc2ccc(/C=C\c3cc(O)cc(O)c3)cc2)[C@H](O)[C@@H](O)[C@@H]1O (relative stereo) [cis-RESV-4-O-glucuronide, cis-resveratrol-4-O-glucuronide]
Detection of metabolite in mouse and cell culture samples ([1]; mouse, in vivo): barely detected

Resveratrol-disulfate [RESV-DISULF]
Reports and comments: samples in which the metabolite was detected [1, 4]: Detected in mouse blood and liver samples
